Assay results: PubChem BioAssay (NCI)
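Following 48 hours of exposure in 96-well plates, responses at five concentrations were used to interpolate endpoints linearly. TGI denotes the concentration required for complete inhibition of growth.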

Experiments:
Assay in all cases: growth of human tumour cells (NCI), 48 h
786-0 renal = tested on: 786-0 renal
A498 renal = tested on: A498 renal
A549 NSCLC = tested on: A549 NSCLC
ACHN renal = tested on: ACHN renal
CAKI-1 renal = tested on: CAKI-1 renal
CCRF-CEM leukemia = tested on: CCRF-CEM leukemia
COLO 205 colon = tested on: COLO 205 colon
DLD-1 colon = tested on: DLD-1 colon
DMS 114 small cell lung = tested on: DMS 114 small cell lung
DMS 273 small cell lung = tested on: DMS 273 small cell lung
EKVX NSCLC = tested on: EKVX NSCLC
HCC-2998 colon = tested on: HCC-2998 colon
HCT-116 colon = tested on: HCT-116 colon
HCT-15 colon = tested on: HCT-15 colon
HOP-18 NSCLC = tested on: HOP-18 NSCLC
HOP-62 NSCLC = tested on: HOP-62 NSCLC
HOP-92 NSCLC = tested on: HOP-92 NSCLC
HT29 colon = tested on: HT29 colon
IGROV1 ovarian = tested on: IGROV1 ovarian
K-562 leukemia = tested on: K-562 leukemia
KM12 colon = tested on: KM12 colon
KM20L2 colon = tested on: KM20L2 colon
LXFL 529 NSCLC = tested on: LXFL 529 NSCLC
M14 melanoma = tested on: M14 melanoma
M19-MEL melanoma = tested on: M19-MEL melanoma
MALME-3M melanoma = tested on: MALME-3M melanoma
MOLT-4 leukemia = tested on: MOLT-4 leukemia
NCI-H226 lung = tested on: NCI-H226 lung
NCI-H23 lung = tested on: NCI-H23 lung
NCI-H460 lung = tested on: NCI-H460 lung
NCI-H522 lung = tested on: NCI-H522 lung
OVCAR-3 ovarian = tested on: OVCAR-3 ovarian
OVCAR-4 ovarian = tested on: OVCAR-4 ovarian
OVCAR-5 ovarian = tested on: OVCAR-5 ovarian
OVCAR-8 ovarian = tested on: OVCAR-8 ovarian
RPMI-8226 leukemia = tested on: RPMI-8226 leukemia
RXF-631 renal = tested on: RXF-631 renal
SF-268 CNS = tested on: SF-268 CNS
SF-295 CNS = tested on: SF-295 CNS
SF-539 CNS = tested on: SF-539 CNS
SK-MEL-2 melanoma = tested on: SK-MEL-2 melanoma
SK-MEL-28 melanoma = tested on: SK-MEL-28 melanoma
SK-MEL-5 melanoma = tested on: SK-MEL-5 melanoma
SK-OV-3 ovarian = tested on: SK-OV-3 ovarian
SN12C renal = tested on: SN12C renal
SNB-19 CNS = tested on: SNB-19 CNS
SNB-75 CNS = tested on: SNB-75 CNS
SW-620 colon = tested on: SW-620 colon
TK-10 renal = tested on: TK-10 renal
U251 CNS = tested on: U251 CNS
UACC-257 melanoma = tested on: UACC-257 melanoma
UACC-62 melanoma = tested on: UACC-62 melanoma
UO-31 renal = tested on: UO-31 renal
XF 498 CNS = tested on: XF 498 CNS
HL-60(TB) leukemia = tested on: HL-60(TB) leukemia
LOX IMVI melanoma = tested on: LOX IMVI melanoma
RXF 393 renal = tested on: RXF 393 renal
SR leukemia = tested on: SR leukemia

Compound: O=[N+]([O-])c1ccc(OCCNc2cccc3ccccc23)cc1
- TGI (786-0 renal): > 100 µM
- TGI (A498 renal): > 100 µM
- TGI (A549 NSCLC): > 100 µM
- TGI (ACHN renal): > 100 µM
- TGI (CAKI-1 renal): > 100 µM
- TGI (CCRF-CEM leukemia): > 100 µM
- TGI (COLO 205 colon): > 100 µM
- TGI (DLD-1 colon): > 100 µM
- TGI (DMS 114 small cell lung): > 100 µM
- TGI (DMS 273 small cell lung): > 100 µM
- TGI (EKVX NSCLC): > 100 µM
- TGI (HCC-2998 colon): > 100 µM
- TGI (HCT-116 colon): > 100 µM
- TGI (HCT-15 colon): > 100 µM
- TGI (HOP-18 NSCLC): > 100 µM
- TGI (HOP-62 NSCLC): > 100 µM
- TGI (HOP-92 NSCLC): > 100 µM
- TGI (HT29 colon): > 100 µM
- TGI (IGROV1 ovarian): > 100 µM
- TGI (K-562 leukemia): > 100 µM
- TGI (KM12 colon): > 100 µM
- TGI (KM20L2 colon): > 100 µM
- TGI (LXFL 529 NSCLC): > 100 µM
- TGI (M14 melanoma): > 100 µM
- TGI (M19-MEL melanoma): > 100 µM
- TGI (MALME-3M melanoma): > 100 µM
- TGI (MOLT-4 leukemia): > 100 µM
- TGI (NCI-H226 lung): > 100 µM
- TGI (NCI-H23 lung): > 100 µM
- TGI (NCI-H460 lung): > 100 µM
- TGI (NCI-H522 lung): > 100 µM
- TGI (OVCAR-3 ovarian): > 100 µM
- TGI (OVCAR-4 ovarian): > 100 µM
- TGI (OVCAR-5 ovarian): > 100 µM
- TGI (OVCAR-8 ovarian): > 100 µM
- TGI (RPMI-8226 leukemia): > 100 µM
- TGI (RXF-631 renal): > 100 µM
- TGI (SF-268 CNS): > 100 µM
- TGI (SF-295 CNS): > 100 µM
- TGI (SF-539 CNS): > 100 µM
- TGI (SK-MEL-2 melanoma): > 100 µM
- TGI (SK-MEL-28 melanoma): > 100 µM
- TGI (SK-MEL-5 melanoma): > 100 µM
- TGI (SK-OV-3 ovarian): > 100 µM
- TGI (SN12C renal): > 100 µM
- TGI (SNB-19 CNS): > 100 µM
- TGI (SNB-75 CNS): > 100 µM
- TGI (SW-620 colon): > 100 µM
- TGI (TK-10 renal): > 100 µM
- TGI (U251 CNS): > 100 µM
- TGI (UACC-257 melanoma): > 100 µM
- TGI (UACC-62 melanoma): > 100 µM
- TGI (UO-31 renal): > 100 µM
- TGI (XF 498 CNS): > 100 µM

Compound: CCCOP1(=O)C=C(C)C(Cl)=C(C)C1 (centres undefined)
- TGI (786-0 renal): 36.7 µM
- TGI (A549 NSCLC): 61.3 µM
- TGI (ACHN renal): 52.5 µM
- TGI (CCRF-CEM leukemia): 59.3 µM
- TGI (COLO 205 colon): 24.4 µM
- TGI (DLD-1 colon): 96.3 µM
- TGI (DMS 114 small cell lung): 46.3 µM
- TGI (DMS 273 small cell lung): 36.7 µM
- TGI (EKVX NSCLC): > 100 µM
- TGI (HCC-2998 colon): > 100 µM
- TGI (HCT-116 colon): 47.5 µM
- TGI (HCT-15 colon): 58.4 µM
- TGI (HL-60(TB) leukemia): 81.6 µM
- TGI (HOP-18 NSCLC): > 100 µM
- TGI (HOP-62 NSCLC): > 100 µM
- TGI (HOP-92 NSCLC): 48.6 µM
- TGI (HT29 colon): 49.3 µM
- TGI (IGROV1 ovarian): > 100 µM
- TGI (K-562 leukemia): > 100 µM
- TGI (KM12 colon): 43 µM
- TGI (KM20L2 colon): 88.8 µM
- TGI (LOX IMVI melanoma): 36.1 µM
- TGI (LXFL 529 NSCLC): 42.9 µM
- TGI (M14 melanoma): 32.5 µM
- TGI (M19-MEL melanoma): 52.7 µM
- TGI (MOLT-4 leukemia): 64.9 µM
- TGI (NCI-H226 lung): 52.2 µM
- TGI (NCI-H23 lung): 37 µM
- TGI (NCI-H460 lung): > 100 µM
- TGI (NCI-H522 lung): 28.5 µM
- TGI (OVCAR-3 ovarian): 70.3 µM
- TGI (OVCAR-4 ovarian): 86.7 µM
- TGI (OVCAR-5 ovarian): 77.4 µM
- TGI (OVCAR-8 ovarian): > 100 µM
- TGI (RPMI-8226 leukemia): 35.5 µM
- TGI (RXF 393 renal): 57 µM
- TGI (RXF-631 renal): > 100 µM
- TGI (SF-268 CNS): 45.2 µM
- TGI (SF-295 CNS): > 100 µM
- TGI (SF-539 CNS): 63.8 µM
- TGI (SK-MEL-2 melanoma): 32.2 µM
- TGI (SK-MEL-28 melanoma): 43.5 µM
- TGI (SK-MEL-5 melanoma): 55.3 µM
- TGI (SK-OV-3 ovarian): > 100 µM
- TGI (SN12C renal): 58.6 µM
- TGI (SNB-19 CNS): > 100 µM
- TGI (SNB-75 CNS): 92.6 µM
- TGI (SR leukemia): 61.8 µM
- TGI (SW-620 colon): 35.5 µM
- TGI (TK-10 renal): 63.9 µM
- TGI (U251 CNS): 59.3 µM
- TGI (UACC-257 melanoma): 45.7 µM
- TGI (UACC-62 melanoma): 32.4 µM
- TGI (UO-31 renal): > 100 µM
- TGI (XF 498 CNS): 31.4 µM
